Patent US11377423B2, “Inhibitors of histone deacetylase” (The Broad Institute, Inc., priority 2012, dated 2022)

Tested on: INS-1E cells
Experiment: Cytokine-induced beta-cell apoptosis, caspase-3 activity assay
Type: cell-based, rat
Method: Compounds of the invention were evaluated for their ability to suppress cytokine-induced beta-cell apoptosis and palmitate and/or glucose-induced beta-cell apoptosis by inhibition of HDAC3. Assay protocols were as follows: Cell culture and reagents. […] Recombinant IL-1β, IFN-γ, and TNF-α were purchased from R&D Systems. Palmitate, D-glucose and fatty acids-free low endotoxin BSA were purchased from Sigma. Palmitate was solubilized in 90% ethanol, heated to 60° C. and used 1:100 dilution in media. Caspase-Glo 3/7 was from Promega and 3-(4,5-dimethylthiazol-2-yl)-2,5-diphenyltetrazolium bromide (MTT) was from Calbiochem. Antibodies for HDAC1, HDAC2, HDAC3, pJNK, JNK cleaved caspase-9 and secondary horseradish-peroxidase conjugated goat anti-mouse and anti-rabbit antibodies were from Cell Signaling. Antibody for beta-actin was from Sigma and antibody against CHOP (GADD153) from Abcam. HDAC inhibitors were purchased from Selleck Chemicals or synthesized in-house. Primers were from Integrated DNA Technologies, High Capacity cDNA RT kit and SYBR green master mix were purchased from Applied Biosystems. INS-1E cells were seeded at 5,000 cells/well using a Multidrop Combi (Thermo Labsystems) in white optical 384-well plates (Corning Life Sciences). After overnight incubation, medium was removed and 50 μL RPMI containing the treated compound, 1% FBS and either a combination of cytokines (10 ng/mL IL-1β, 50 ng/mL IFN-γ, 25 ng/mL TNF-α) or 0.5 mM sodium palmitate was added to every well. After two-day treatment, medium was removed and 20 μL Caspase-Glo 3/7 reagent was added. Luminescence was measured after a two-hour incubation using an Envision plate reader (PerkinElmer). […] The rat INS-1E cell line was simultaneously treated for 48 hours with a combination of pro-inflammatory cytokines IL-1β, IFN-γ, and TNF-α, and the indicated test compounds. […] Compound 9, a negative control, had no effect. […] FIGS. 9C and 9D show a dose-response analysis of HDAC inhibition in suppression of cytokine-induced beta-cell apoptosis. […] This could translate to a larger therapeutic window. […]

CC(=O)Nc1ccc(C(=O)Nc2ccc(F)cc2N)cc1 [Compound 1, 4-acetamido-N-(2-amino-4-fluorophenyl)benzamide] was tested, and the “suppression of cytokine-induced beta-cell apoptosis (caspase activity)” value (IL-1β, IFN-γ, TNF-α, 48 hours, 5 μM compound) was “as effective at suppressing cyctokine-induced beta-cell apoptosis as CI-994” and the “suppression of caspase-3 activity, comparison of compounds” value (cytokines, 0.1-10 μM, dose dependent) was “more effective at suppressing caspase-3 activity”.
